# In patent US20250067753A1, “Protein array-based in vitro transglutaminase assay platform for epitope mapping and immunogen design” (priority 2021, published 2025):
# Tests used:
# [1] = molecular target: T1, guinea pig liver tissue transglutaminase (UniProt P08587); experiment: Onchip in vitro TG2 assay (dansyl-cadaverine incorporation on peptide microchip); assay type: biochemical; details: 100 μg/ml TG2, 3 mM dansyl-cadaverine, 5 mM Calcium Chloride, 37 degree, 30 minutes; anti-dansyl antibody/Alexa Fluor 594 readout
# T1 construct: guinea pig liver tissue transglutaminase (Sigma); purchased Sigma; host or cells: guinea pig liver (as named)
# T1 sequence (P08587 1-690): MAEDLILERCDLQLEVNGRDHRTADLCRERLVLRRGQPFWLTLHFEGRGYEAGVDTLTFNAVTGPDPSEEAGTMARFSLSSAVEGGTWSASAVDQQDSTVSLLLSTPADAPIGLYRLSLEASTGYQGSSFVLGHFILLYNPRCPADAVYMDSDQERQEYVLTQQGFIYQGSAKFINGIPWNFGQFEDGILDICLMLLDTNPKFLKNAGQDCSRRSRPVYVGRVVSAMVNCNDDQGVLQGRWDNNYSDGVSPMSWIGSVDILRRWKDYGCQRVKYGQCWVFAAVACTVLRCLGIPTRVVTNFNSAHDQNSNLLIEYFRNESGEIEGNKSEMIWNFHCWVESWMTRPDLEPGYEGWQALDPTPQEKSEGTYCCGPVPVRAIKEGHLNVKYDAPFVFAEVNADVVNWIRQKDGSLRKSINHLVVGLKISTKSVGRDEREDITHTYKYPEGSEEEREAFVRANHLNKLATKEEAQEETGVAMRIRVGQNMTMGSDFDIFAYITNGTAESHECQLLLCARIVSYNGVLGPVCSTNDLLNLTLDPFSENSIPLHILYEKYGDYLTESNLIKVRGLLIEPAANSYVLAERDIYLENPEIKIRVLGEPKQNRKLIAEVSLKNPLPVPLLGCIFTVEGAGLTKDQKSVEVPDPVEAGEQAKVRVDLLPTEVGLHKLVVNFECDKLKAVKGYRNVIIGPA
# Protocol: To identify the glutamine residues that can be modified by tissue transglutaminase on the peptide microchip, the synthesized peptide microchip was incubated with 100 μg/ml guinea pig liver tissue transglutaminase (Sigma) and 3 mM dansyl-cadaverine (Sigma) in 1 ml of TBS containing 5 mM Calcium Chloride and 1 mM DTT at 37 degree for 30 minutes. Afterwards, the peptide chip was washed at least 3 times with TBS. After washing off tissue transglutaminase and dansyl-cadaverine molecules […] the synthesized peptides, the dansyl-cadaverine conjugated on the chip was tracked by rabbit anti-dansyl antibody (Invitrogen) followed by Alexa Fluor 594-labeled anti-rabbit secondary antibody (Invitrogen). Fluorescent microchip figures were quantified and analyzed with ArrayPro32. Original array figures and data are available upon request.
# To characterize the glutamine-bearing TG2 modification motifs on these synthesized peptides, dansyl-cadaverine, a well-established amine donor in transglutaminase reaction, was covalently conjugated to the glutamine residues on the peptide chip by purified TG2 with the help of calcium (FIG. 1A). […] In this way the level of dansyl-cadaverine incorporation on a certain peptide was measured by the fluorescent intensity. […]
# transglutaminase = details: as amine acceptor; Parameswaran, Velasco et al. 1990; cited from earlier work
substance,measurement,setting,value
QQIV,fluorescent intensity (level of dansyl-cadaverine incorporation),[1],~5000
same,competitive inhibitor for the transglutaminase reaction,transglutaminase,effective competitive inhibitor
